Laboratory results reported in ChEMBL document CHEMBL1131509, “Synthesis and cytotoxicity of 2-acetyl-4,8-dihydrobenzodithiophene-4, 8-dione derivatives” (J Med Chem, 1998).

Legend:
LOX IMVI = assay: in vitro inhibition of melanoma(LOX IMVI) cancer cell line; assay type: functional; conditions: Homo sapiens
MDA-MB-435 = assay: in vitro inhibition of breast (MDA-MB-435) cancer cell line; assay type: functional; conditions: Homo sapiens
BT-549 [1] = assay: in vitro inhibition of breast (BT-549) cancer cell line; conditions: Homo sapiens
MDA-N = assay: in vitro inhibition of breast (MDA-N) cancer cell line; assay type: functional; conditions: Homo sapiens
Hs-578T = assay: in vitro inhibition of breast (HS 578T) cancer cell line; assay type: functional; conditions: Homo sapiens
M14 = assay: in vitro inhibition of melanoma (M14) cancer cell line; assay type: functional; conditions: Homo sapiens
UACC-257 = assay: in vitro inhibition of melanoma (UACC-257) cancer cell line; assay type: functional; conditions: Homo sapiens
HL-60 = assay: in vitro inhibition of leukemia (HL-60(TB)) cancer cell line; assay type: functional; conditions: Homo sapiens
OVCAR-8 = assay: in vitro inhibition of ovarian (OVCAR-8) cancer cell line; assay type: functional; conditions: Homo sapiens
OVCAR-3 = assay: in vitro inhibition of ovarian (OVCAR-3) cancer cell line; assay type: functional; conditions: Homo sapiens
UACC-62 = assay: in vitro inhibition of melanoma (UACC-62) cancer cell line; assay type: functional; conditions: Homo sapiens
SK-MEL-28 = assay: in vitro inhibition of melanoma (SK-MEL-28) cancer cell line; assay type: functional; conditions: Homo sapiens
NCI-H23 = assay: in vitro inhibition of non-small-cell lung (NCI-H23) cancer cell line; assay type: functional; conditions: Homo sapiens
Malme-3M = assay: in vitro inhibition of melanoma (MALME-3M) cancer cell line; assay type: functional; conditions: Homo sapiens
SK-MEL-5 = assay: in vitro inhibition of melanoma (SK-MEL-5) cancer cell line; assay type: functional; conditions: Homo sapiens
SK-MEL-2 [2] = assay: in vitro inhibition of melanoma (SK-MEL-2) cancer cell line; assay type: functional; conditions: Homo sapiens
NCI-H522 = assay: in vitro inhibition of non-small-cell lung (NCI-H522) cancer cell line; assay type: functional; conditions: Homo sapiens
BT-549 [3] = assay: in vitro inhibition of breast (BT-549) cancer cell line; assay type: functional; conditions: Homo sapiens
MCF7 = assay: cytotoxic activity against […] cancer cell line; assay type: functional, cell-based; conditions: Homo sapiens
A549 = assay: cytotoxic activity against […] cancer cell line; assay type: functional, cell-based; conditions: Homo sapiens
L1210 (1565) = assay: cytotoxic activity against leukemia (L-1210) cancer cell line; assay type: functional, cell-based; conditions: Mus musculus
HCT-8 = assay: cytotoxic activity against […] cancer cell line; assay type: functional, cell-based; conditions: Homo sapiens
CAKI-1 = assay: cytotoxic activity against […] cancer cell line; assay type: functional, cell-based; conditions: Homo sapiens
P388 = assay: cytotoxic activity against leukemia (P-388) cancer cell line; assay type: functional, cell-based; conditions: Mus musculus
KB = assay: cytotoxic activity against […] cancer cell line; assay type: functional, cell-based; conditions: Homo sapiens
SK-MEL-2 [4] = assay: cytotoxic activity against […] cancer cell line; assay type: functional, cell-based; conditions: Homo sapiens

SMILES | GI50 (LOX IMVI) [nM] | GI50 (MDA-MB-435) [nM] | GI50 (MDA-N) [nM] | GI50 (Hs-578T) [nM] | GI50 (M14) [nM] | GI50 (UACC-257) [nM] | GI50 (HL-60) [nM] | GI50 (OVCAR-8) [nM] | GI50 (OVCAR-3) [nM] | GI50 (UACC-62) [nM] | GI50 (SK-MEL-28) [nM] | GI50 (NCI-H23) [nM] | GI50 (Malme-3M) [nM] | GI50 (SK-MEL-5) [nM] | GI50 (SK-MEL-2 [2]) [nM] | GI50 (NCI-H522) [nM] | GI50 (BT-549 [3]) [nM] | other results
CC(O)c1cc2c(s1)C(=O)c1c(C(C)O)csc1C2=O (configuration not stated) | 55 | 18 | 21 | 320 | 58 | 62 | 11 | 220 | 12 | 32 | 190 | 34 | 28 | 13 | 110 | 300 | – | GI50 (BT-549 [1]): 160 nM
CC(O)c1cc2c(s1)C(=O)c1ccsc1C2=O (configuration not stated) | 10 | < 10 | 13 | 110 | 15 | 15 | 15 | 200 | 24 | 16 | 17 | 15 | 16 | < 10 | 91 | 120 | 78 | –
CC(O)c1cc2c(s1)C(=O)c1sccc1C2=O (configuration not stated) | 24 | 16 | 19 | 58 | 15 | 18 | 69 | 160 | 120 | 22 | 39 | 16 | 19 | 14 | 31 | 120 | 35 | –
O=C1c2ccsc2C(=O)c2ccsc21 | – | – | – | – | – | – | – | – | – | – | – | – | – | – | – | – | – | IC50 (MCF7): 480 nM; IC50 (A549): 260 nM; IC50 (L1210 (1565)): 1700 nM; IC50 (HCT-8): 320 nM; IC50 (CAKI-1): 1500 nM; IC50 (P388): < 530 nM; IC50 (KB): 310 nM
CC(=O)c1cc2c(s1)C(=O)c1ccsc1C2=O | 25 | 37 | 37 | 160 | 130 | 130 | 45 | 300 | 160 | 210 | 160 | 150 | 117 | 23 | 200 | 160 | 180 | –
CC(=O)c1cc2c(s1)C(=O)c1sccc1C2=O | < 10 | < 10 | < 10 | 36 | 17 | 14 | < 10 | 31 | < 10 | 17 | < 10 | 18 | 16 | < 10 | 33 | 17 | 18 | –
CC(O)c1cc2c(s1)C(=O)c1scc(C(C)O)c1C2=O (configuration not stated) | 120 | 160 | 150 | 320 | 160 | 160 | 440 | 260 | 360 | 250 | 230 | 190 | 150 | 140 | 200 | 400 | 200 | –
CC(=O)OC(C)c1cc2c(s1)C(=O)c1ccsc1C2=O (configuration not stated) | < 10 | < 10 | < 10 | 160 | 13 | 25 | < 10 | 36 | < 10 | 17 | 19 | 11 | < 10 | 14 | 26 | 150 | – | GI50 (BT-549 [1]): 46 nM
CC(=O)OC(C)c1cc2c(s1)C(=O)c1scc(C(C)OC(C)=O)c1C2=O (configuration not stated) | 120 | 21 | 59 | 250 | 120 | 170 | 650 | 230 | 270 | 200 | 210 | 160 | 130 | 34 | 150 | 200 | 200 | –
CC(=O)c1cc2c(s1)C(=O)c1c(C(C)=O)csc1C2=O | 1100 | 180 | 170 | 2400 | 1500 | 560 | 53 | 1500 | 230 | 2000 | 1800 | 1300 | 130 | 1200 | 1700 | 530 | – | GI50 (BT-549 [1]): 1700 nM
CC(=O)c1cc2c(s1)C(=O)c1scc(C(C)=O)c1C2=O | 22 | 230 | 200 | 280 | 440 | 170 | < 10 | 230 | 30 | 230 | 200 | 290 | 220 | 320 | 160 | 380 | 910 | –
CC(=O)OC(C)c1cc2c(s1)C(=O)c1sccc1C2=O (configuration not stated) | 210 | 180 | 19 | 510 | 160 | 210 | 1700 | 1400 | 490 | 1400 | 650 | 220 | 120 | 110 | 420 | 870 | 280 | –
CC(=O)OC(C)c1cc2c(s1)C(=O)c1c(C(C)OC(C)=O)csc1C2=O (configuration not stated) | 1600 | 190 | 210 | 2100 | 510 | 630 | 68 | 460 | 280 | 1100 | 1700 | 870 | 190 | 630 | 1600 | < 10 | – | GI50 (BT-549 [1]): 2100 nM
O=C1c2ccsc2C(=O)c2sccc21 | – | – | – | – | – | – | – | – | – | – | – | – | – | – | – | – | – | IC50 (MCF7): < 85 nM; IC50 (A549): 170 nM; IC50 (HCT-8): 170 nM; IC50 (CAKI-1): 590 nM; IC50 (SK-MEL-2 [4]): 320 nM; IC50 (KB): 270 nM
